Experimental data as given in ChEMBL document CHEMBL3400132, “Design, synthesis and evaluation of novel 5,6,7-trimethoxyflavone-6-chlorotacrine hybrids as potential multifunctional agents for the treatment of Alzheimer's disease” (Bioorg Med Chem Lett, 2015).
The source made the active and inactive calls. The rule behind the calls is not given here.

Assays:
[1] = target: Amyloid-beta precursor protein (Homo sapiens) (UniProt P05067); experiment: Inhibition of self-induced Abeta(1 to 42) (unknown origin) aggregation at 25 uM after 24 hrs by Thioflavin T-based fluorometric assay
[2] = system: PC-12; experiment: Protective activity against H2O2-induced rat PC12 cell injury assessed as cell viability incubated at 5 uM for 3 hrs before H2O2 addition measured after 5 hrs by MTT assay relative to untreated control; type: functional; conditions: read-out: Activity
[3] = target: Acetylcholinesterase (Electrophorus electricus, UniProt O42275); experiment: Inhibition of electric eel AChE using acetylthiocholine chloride as substrate after 15 mins by Ellman spectrophotometric method
[4] = Antioxidant activity assessed as Trolox equivalent per microM of compound after 15 mins by oxygen radical absorbance capacity fluorescein assay; type: physicochemical; conditions: 0.25 h
[5] = Selectivity index, ratio of IC50 for equine serum BChE to IC50 for electric eel AChE
[6] = target: Cholinesterase (Equus caballus, UniProt P81908); experiment: Inhibition of equine serum BChE using acetylthiocholine chloride as substrate after 15 mins by Ellman spectrophotometric method
[7] = target: Acetylcholinesterase (Electrophorus electricus) (UniProt O42275); experiment: Mixed-type inhibition of electric eel AChE using acetylthiocholine chloride as substrate after 15 mins by Lineweaver-Burk plot method
[8] = Permeability of the compound in DMSO-PBS/EtOH solution at 100 ug/ml by PAMPA; type: ADME; conditions: read-out: permeability
[9] = target: Acetylcholinesterase (Homo sapiens, UniProt P22303); experiment: Inhibition of human erythrocyte AChE using acetylthiocholine chloride as substrate after 15 mins by Ellman spectrophotometric method
Acetylcholinesterase (Homo sapiens, UniProt P22303), sequence (P22303 whole entry): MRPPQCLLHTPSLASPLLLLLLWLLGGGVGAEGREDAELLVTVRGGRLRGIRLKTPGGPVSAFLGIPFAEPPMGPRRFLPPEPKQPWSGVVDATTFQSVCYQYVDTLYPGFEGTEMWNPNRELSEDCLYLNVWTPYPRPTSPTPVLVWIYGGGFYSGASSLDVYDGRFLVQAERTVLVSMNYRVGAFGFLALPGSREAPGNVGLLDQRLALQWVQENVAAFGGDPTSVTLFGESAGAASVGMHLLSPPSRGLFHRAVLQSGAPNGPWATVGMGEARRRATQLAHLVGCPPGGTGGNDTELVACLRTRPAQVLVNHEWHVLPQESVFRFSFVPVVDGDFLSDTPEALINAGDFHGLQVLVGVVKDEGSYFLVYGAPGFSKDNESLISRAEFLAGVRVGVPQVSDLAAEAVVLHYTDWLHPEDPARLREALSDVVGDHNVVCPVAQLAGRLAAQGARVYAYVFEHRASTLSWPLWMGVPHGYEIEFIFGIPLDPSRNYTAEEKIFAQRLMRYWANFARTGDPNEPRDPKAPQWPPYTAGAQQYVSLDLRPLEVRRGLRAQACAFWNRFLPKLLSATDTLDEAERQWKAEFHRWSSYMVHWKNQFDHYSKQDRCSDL

Cholinesterase, sequence (P81908 whole entry): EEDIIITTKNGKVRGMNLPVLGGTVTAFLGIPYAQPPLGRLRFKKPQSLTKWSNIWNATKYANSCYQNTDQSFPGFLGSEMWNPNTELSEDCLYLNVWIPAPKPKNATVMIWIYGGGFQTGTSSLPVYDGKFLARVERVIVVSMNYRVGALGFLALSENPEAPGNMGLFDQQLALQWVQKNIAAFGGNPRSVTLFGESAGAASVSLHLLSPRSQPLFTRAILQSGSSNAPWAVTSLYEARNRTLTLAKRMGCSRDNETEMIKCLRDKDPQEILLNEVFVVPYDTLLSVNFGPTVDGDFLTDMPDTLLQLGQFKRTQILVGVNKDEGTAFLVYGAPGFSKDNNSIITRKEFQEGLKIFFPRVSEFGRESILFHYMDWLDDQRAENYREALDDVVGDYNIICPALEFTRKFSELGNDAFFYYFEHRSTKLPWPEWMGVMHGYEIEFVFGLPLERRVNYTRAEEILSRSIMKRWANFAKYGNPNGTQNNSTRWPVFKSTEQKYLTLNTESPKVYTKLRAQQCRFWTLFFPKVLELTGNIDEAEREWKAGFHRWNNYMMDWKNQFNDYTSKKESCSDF
Acetylcholinesterase (Electrophorus electricus, UniProt O42275), sequence (O42275 whole entry): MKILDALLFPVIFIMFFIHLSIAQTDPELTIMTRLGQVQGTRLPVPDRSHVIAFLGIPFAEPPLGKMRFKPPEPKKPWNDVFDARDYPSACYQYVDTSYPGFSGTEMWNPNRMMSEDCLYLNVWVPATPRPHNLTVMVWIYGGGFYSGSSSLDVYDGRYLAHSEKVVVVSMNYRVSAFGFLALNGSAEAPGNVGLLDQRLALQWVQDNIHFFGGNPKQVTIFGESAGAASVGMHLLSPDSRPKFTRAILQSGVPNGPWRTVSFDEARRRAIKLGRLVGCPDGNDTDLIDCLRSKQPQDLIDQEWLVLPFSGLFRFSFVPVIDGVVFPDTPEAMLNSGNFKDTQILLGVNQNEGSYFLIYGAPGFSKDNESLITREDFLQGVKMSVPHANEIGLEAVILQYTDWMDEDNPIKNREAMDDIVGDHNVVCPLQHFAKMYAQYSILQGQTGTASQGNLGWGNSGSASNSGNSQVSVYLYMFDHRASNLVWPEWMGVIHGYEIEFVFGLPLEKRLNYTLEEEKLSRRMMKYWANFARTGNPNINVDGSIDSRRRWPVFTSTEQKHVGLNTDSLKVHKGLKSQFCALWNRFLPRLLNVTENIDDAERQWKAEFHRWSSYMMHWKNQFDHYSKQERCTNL
Amyloid-beta precursor protein (Homo sapiens), sequence (P05067 whole entry): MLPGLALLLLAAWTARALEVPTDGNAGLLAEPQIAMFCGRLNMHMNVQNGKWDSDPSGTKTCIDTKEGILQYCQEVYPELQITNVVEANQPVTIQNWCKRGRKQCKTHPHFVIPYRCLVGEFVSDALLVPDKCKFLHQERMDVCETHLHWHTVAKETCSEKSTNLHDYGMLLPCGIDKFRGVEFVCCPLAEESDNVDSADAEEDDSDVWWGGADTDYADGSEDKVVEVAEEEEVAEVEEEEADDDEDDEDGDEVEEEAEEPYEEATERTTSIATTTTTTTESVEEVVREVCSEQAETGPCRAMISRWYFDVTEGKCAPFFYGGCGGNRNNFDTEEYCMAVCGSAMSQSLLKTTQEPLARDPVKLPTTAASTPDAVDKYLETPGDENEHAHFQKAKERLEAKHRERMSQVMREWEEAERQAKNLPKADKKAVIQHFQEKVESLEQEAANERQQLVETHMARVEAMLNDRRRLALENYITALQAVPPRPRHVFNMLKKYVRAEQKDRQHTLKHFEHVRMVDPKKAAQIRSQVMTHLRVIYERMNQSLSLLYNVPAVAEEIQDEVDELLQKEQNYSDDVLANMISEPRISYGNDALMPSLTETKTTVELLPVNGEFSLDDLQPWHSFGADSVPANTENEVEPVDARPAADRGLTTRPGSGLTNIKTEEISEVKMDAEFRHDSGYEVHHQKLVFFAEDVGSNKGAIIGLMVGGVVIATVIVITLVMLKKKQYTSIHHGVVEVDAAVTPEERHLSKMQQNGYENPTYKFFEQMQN
Acetylcholinesterase (Electrophorus electricus), sequence (O42275 24-633 limits assumed): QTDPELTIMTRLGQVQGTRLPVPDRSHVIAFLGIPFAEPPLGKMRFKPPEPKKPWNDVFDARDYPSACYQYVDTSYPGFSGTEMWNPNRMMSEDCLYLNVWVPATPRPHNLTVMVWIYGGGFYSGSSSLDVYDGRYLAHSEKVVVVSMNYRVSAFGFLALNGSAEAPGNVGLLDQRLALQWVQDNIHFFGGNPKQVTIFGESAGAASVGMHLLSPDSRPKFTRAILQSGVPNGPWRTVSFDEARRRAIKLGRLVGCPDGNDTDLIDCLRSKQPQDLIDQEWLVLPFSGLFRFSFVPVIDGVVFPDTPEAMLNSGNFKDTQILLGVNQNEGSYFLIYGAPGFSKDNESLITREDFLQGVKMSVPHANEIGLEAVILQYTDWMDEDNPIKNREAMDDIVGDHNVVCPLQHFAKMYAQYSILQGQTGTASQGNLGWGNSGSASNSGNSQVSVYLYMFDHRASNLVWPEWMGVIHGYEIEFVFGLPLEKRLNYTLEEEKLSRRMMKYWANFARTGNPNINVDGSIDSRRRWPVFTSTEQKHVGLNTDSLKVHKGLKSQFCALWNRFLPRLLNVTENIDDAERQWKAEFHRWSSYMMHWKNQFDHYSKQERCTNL

Compound	inhibition [1]	viability at 5 µM [2]	IC50 [3]	fold change (Trolox equivalents (ORAC)) [4]	Ratio IC50 [5]	IC50 [6]	inhibition [7]	Papp at 100 ug/ml [8]	IC50 [9]	fold change (FC) [4]
COc1cc2oc(-c3ccc(OCC(=O)NCCCCCNc4c5c(nc6cc(Cl)ccc46)CCCC5)cc3)cc(=O)c2c(OC)c1OC	33.8%	45.3%	12.8 nM	0.55	36.2	463 nM	Active	7.92 ×10⁻⁶ cm/s	6.9 nM	–
COc1cc2oc(-c3cccc(O)c3)cc(=O)c2c(OC)c1OC	17.4%	–	> 100000 nM	3.6	–	> 100000 nM	–	–	–	–
COc1cc2oc(-c3ccc(O)cc3)cc(=O)c2c(OC)c1OC	11.2%	–	> 100000 nM	5.7	–	> 100000 nM	–	–	–	–
COc1cc2oc(-c3ccc(OCC(=O)NCCCNc4c5c(nc6cc(Cl)ccc46)CCCC5)cc3)cc(=O)c2c(OC)c1OC	25.6%	–	29.4 nM	0.62	13.9	549 nM	–	–	–	–
COc1cc2oc(-c3cccc(OCC(=O)NCCCCCNc4c5c(nc6cc(Cl)ccc46)CCCC5)c3)cc(=O)c2c(OC)c1OC	32.5%	–	20.9 nM	0.53	12.7	291 nM	–	–	17.3 nM	–
COc1cc2oc(-c3cccc(OCC(=O)NCCCCCCNc4c5c(nc6cc(Cl)ccc46)CCCC5)c3)cc(=O)c2c(OC)c1OC	34.3%	–	47.2 nM	0.47	20.5	969 nM	–	–	32.5 nM	–
COc1cc2oc(-c3ccc(OCC(=O)NCCCCCCNc4c5c(nc6cc(Cl)ccc46)CCCC5)cc3)cc(=O)c2c(OC)c1OC	35.5%	–	41.3 nM	0.52	10.3	321 nM	–	–	21.6 nM	–
COc1cc2oc(-c3cccc(OCC(=O)NCCCCNc4c5c(nc6cc(Cl)ccc46)CCCC5)c3)cc(=O)c2c(OC)c1OC	31.8%	–	68.2 nM	0.55	15	1020 nM	–	–	–	–
Nc1c2c(nc3cc(Cl)ccc13)CCCC2	–	–	–	–	–	16.5 nM	–	–	–	0.17
COc1cc2oc(-c3ccc(OCC(=O)NCCCCNc4c5c(nc6cc(Cl)ccc46)CCCC5)cc3)cc(=O)c2c(OC)c1OC	30.3%	–	52.8 nM	0.58	23.5	1240 nM	–	–	–	–
COc1cc2oc(-c3cccc(OCC(=O)NCCCNc4c5c(nc6cc(Cl)ccc46)CCCC5)c3)cc(=O)c2c(OC)c1OC	30.6%	–	38.2 nM	0.57	15.4	819 nM	–	–	–	–
